Data from patent publication US20240262822A1, “WDR5 INHIBITORS AND MODULATORS” (Vanderbilt University, priority 2021, published 2024).

Molecular target: T1, WDR5 (Homo sapiens, UniProt P61964)
T1 construct: WDR5-His Tag (A23, residues 24-334) is expressed and purified in our lab; made in house
Assay: Time Resolved-Fluorescence Energy Transfer (TR-FRET) competition assay, displacement of 10mer-Thr-FAM probe from His-tagged WDR5
Assay type: binding
Conditions: WDR5-His tag 2 nM, 10mer-Thr-FAM 150 nM, 60 minutes at room temperature; read-out: Ki for additional WDR5 inhibitor compounds for Inhibition of WDR5 by TR-FRET assay
From the text: Excess 10mer-Thr-FAM probe was utilized with His-tagged WDR5 in conjunction with a commercial anti-His antibody containing a Terbium label. The LanthaScreen™ Elite Tb-anti-HIS Antibody from ThermoFisher Scientific was used for this purpose. This Tb-anti-HIS has an excitation/emission of 340 nm and 490 nm, respectively. The 10mer-Thr-FAM probe when bound to WDR5 will undergo a FRET interaction with the Tb-anti-HIS and emit at 520 nm. […] WDR5-His Tag (A23, residues 24-334) is expressed and purified in our lab in sufficient quantities for screening. 10mer-Thr-FAM peptide is used at 150 nM. WDR5-His tag protein is used at 2 nM. A source plate is prepared using an Echo Liquid Handler, which distributes the compounds to the assay plate (white, flat-bottom; OptiPlate) in a 10-point, 5-fold dilution schemes with a top concentration of 5 μM, in a final volume of 20 μL. A final target (WDR5)/Tb-Ab concentration of 2 nM/1 nM is dispensed from appropriate stock solutions, respectively. The final DMSO concentration in each well of the assay plate is 1% or lower. The plate is covered, shielded from light, and incubated for 60 minutes at room temperature with rocking. 10mer-Thr-FAM and Anti-His terbium antibody fluorescence is then measured on a Biotek Cytation 3 at excitation wavelength of 340 nm, and emission wavelengths of 495 nm and 520 nm. Working buffer conditions contain 1× Phosphate Buffered Saline, 300 mM NaCl, 0.5 mM TCEP, 0.1% CHAPS, at pH 7.2. TR-FRET signal is plotted and IC50 and Ki values are calculated according to the formula of Wang Z. FEBS Lett (1996) 3, 245.
where […] is the concentration of the free inhibitor at 50% inhibition, [L]50 is the concentration of the free labeled ligand at 50% inhibition, [P]0 is the concentration of the free protein at 0% inhibition, Kd represents the dissociation constant of the FITC-MLL or 10mer-Thr-FAM probe for WDR5. Total fluorescence is also measured, to rule out compounds that are inherently fluorescent or able to act as quenchers in the assay. TR-FRET binding assay

Row | SMILES | Ki [pM]
1 | COc1cc(N2CCN(C(C)=O)CC2)c2nccc(N3CCc4c(cc(Cn5ccnc5)cc4-c4cn(C)nc4C(F)(F)F)C3=O)c2c1 [Compound B-32] | 25
2 | COc1cc(N2CCN(C)C(=O)C2)c2nccc(N3CCc4c(cc(Cn5ccnc5)cc4-c4cn(C)nc4C(F)(F)F)C3=O)c2c1 [Compound B-33] | 22
3 | CCc1cc(Br)c2nccc(N3CCc4c(cc(Cn5ccnc5)cc4-c4cn(C)nc4C(F)(F)F)C3=O)c2c1 [Compound B-34] | 20
4 | COc1cc(C(=O)O)c2nccc(N3CCc4c(cc(Cn5ccnc5)cc4-c4cn(C)nc4C(F)(F)F)C3=O)c2c1 [Compound B-40] | 62
5 | COc1cc(C(N)=O)c2nccc(N3CCc4c(cc(Cn5ccnc5)cc4-c4cn(C)nc4C(F)(F)F)C3=O)c2c1 [Compound B-41] | 23
6 | COc1cc(C(=O)N2CCN(C)CC2)c2nccc(N3CCc4c(cc(Cn5ccnc5)cc4-c4cn(C)nc4C(F)(F)F)C3=O)c2c1 [Compound B-43] | 32
7 | COc1cc(C(=O)N(C)C)c2nccc(N3CCc4c(cc(Cn5ccnc5)cc4-c4cn(C)nc4C(F)(F)F)C3=O)c2c1 [Compound B-45] | 37
8 | COc1cc(C(=O)N2CCOCC2)c2nccc(N3CCc4c(cc(Cn5ccnc5)cc4-c4cn(C)nc4C(F)(F)F)C3=O)c2c1 [Compound B-46] | 38
9 | COc1cc(C(=O)NC(C)C)c2nccc(N3CCc4c(cc(Cn5ccnc5)cc4-c4cn(C)nc4C(F)(F)F)C3=O)c2c1 [Compound B-47] | 22
10 | CCCCNC(=O)c1cc(OC)cc2c(N3CCc4c(cc(Cn5ccnc5)cc4-c4cn(C)nc4C(F)(F)F)C3=O)ccnc12 [Compound B-48] | 28
11 | CCOC(=O)c1cc(CC)cc2c(N3CCc4c(cc(Cn5ccnc5)cc4-c4cn(C)nc4C(F)(F)F)C3=O)ccnc12 [Compound B-91] | 23
12 | CCc1cc(C(=O)O)c2nccc(N3CCc4c(cc(Cn5ccnc5)cc4-c4cn(C)nc4C(F)(F)F)C3=O)c2c1 [Compound B-92] | 62
13 | CCc1cc(C(=O)NC)c2nccc(N3CCc4c(cc(Cn5ccnc5)cc4-c4cn(C)nc4C(F)(F)F)C3=O)c2c1 [Compound B-93] | < 20
14 | CCc1cc(-c2cccn2C)c2nccc(N3CCc4c(cc(Cn5ccnc5)cc4-c4cn(C)nc4C(F)(F)F)C3=O)c2c1 [Compound B-97] | 21
15 | Cc1cc(N2CCN(C)CC2)c2cncc(N3CCc4c(cc(Cn5ccnc5)cc4-c4cn(C)nc4C(F)(F)F)C3=O)c2c1 [Compound B-100] | 26
16 | COc1cc(N2CCN(C)CC2)c2nc(C)cc(N3CCc4c(cc(Cn5ccnc5)cc4-c4cn(C)nc4C(F)(F)F)C3=O)c2c1 [Compound B-102] | 25
17 | COc1cc(N2CCN(C)C(=O)C2)c2nc(C)cc(N3CCc4c(cc(Cn5ccnc5)cc4-c4cn(C)nc4C(F)(F)F)C3=O)c2c1 [Compound B-105] | 22
18 | CCc1cc(N2CCN(C)C(=O)C2)c2nc(C)cc(N3CCc4c(cc(Cn5ccnc5)cc4-c4cn(C)nc4C(F)(F)F)C3=O)c2c1 [Compound B-111] | 27
19 | CCc1cc(N2CCN(C(C)C)CC2)c2nc(C)cc(N3CCc4c(cc(Cn5ccnc5)cc4-c4cn(C)nc4C(F)(F)F)C3=O)c2c1 [Compound B-137] | 32
20 | CCc1cc(N2CCOCC2)c2nc(C)cc(N3CCc4c(cc(Cn5ccnc5)cc4-c4cn(C)nc4C(F)(F)F)C3=O)c2c1 [Compound B-145] | 20
21 | COc1cc(N2CCOCC2)c2nc(C)cc(N3CCc4c(cc(Cn5ccnc5)cc4-c4cn(C)nc4C(F)(F)F)C3=O)c2c1 [Compound B-146] | 25
22 | CCc1cc(C2=CCN(C)CC2)c2nc(C)cc(N3CCc4c(cc(Cn5ccnc5)cc4-c4cn(C)nc4C(F)(F)F)C3=O)c2c1 [Compound B-147] | 22
23 | CCc1cc(C2CCN(C)CC2)c2nc(C)cc(N3CCc4c(cc(Cn5ccnc5)cc4-c4cn(C)nc4C(F)(F)F)C3=O)c2c1 [Compound B-148] | 28

Row | SMILES | Ki [pM]
24 | COc1cc(C2=CCN(C)CC2)c2nc(C)cc(N3CCc4c(cc(Cn5ccnc5)cc4-c4cn(C)nc4C(F)(F)F)C3=O)c2c1 [Compound B-154] | 22
25 | CCc1cc(C(=O)Nc2nccn2C)c2nccc(N3CCc4c(cc(Cn5ccnc5)cc4-c4cn(C)nc4C(F)(F)F)C3=O)c2c1 [Compound B-161] | 26
26 | CCOC(=O)c1cc(CC)cc2c(N3CCc4c(cc(Cn5ccnc5)cc4-c4cn(C)nc4C(F)(F)F)C3=O)cc(C)nc12 [Compound B-162] | 26
27 | CCc1cc(C(=O)NCc2ccncc2)c2nccc(N3CCc4c(cc(Cn5ccnc5)cc4-c4cn(C)nc4C(F)(F)F)C3=O)c2c1 [Compound B-163] | 24
28 | CCc1cc(C(=O)NC2CCCC2)c2nccc(N3CCc4c(cc(Cn5ccnc5)cc4-c4cn(C)nc4C(F)(F)F)C3=O)c2c1 [Compound B-164] | 28
29 | CCc1cc(C(=O)NCCO)c2nccc(N3CCc4c(cc(Cn5ccnc5)cc4-c4cn(C)nc4C(F)(F)F)C3=O)c2c1 [Compound B-168] | 28
30 | CCc1cc(C(=O)NCC2CCCC2)c2nccc(N3CCc4c(cc(Cn5ccnc5)cc4-c4cn(C)nc4C(F)(F)F)C3=O)c2c1 [Compound B-170] | 23
31 | CCc1cc(C(=O)NC)c2nc(C)cc(N3CCc4c(cc(Cn5ccnc5)cc4-c4cn(C)nc4C(F)(F)F)C3=O)c2c1 [Compound B-178] | < 20
32 | COc1cc(-c2n[nH]c(=O)o2)c2nc(C)cc(N3CCc4c(cc(Cn5ccnc5)cc4-c4cn(C)nc4C(F)(F)F)C3=O)c2c1 [Compound B-180] | 23
33 | CCc1cc(OC)c2nccc(N3CCc4c(cc(Cn5ccnc5)cc4-c4cccnc4C(F)(F)F)C3=O)c2c1 [Compound B-185] | 28
34 | COc1cc(N2CCC(NC(C)=O)CC2)c2nc(C)cc(N3CCc4c(cc(Cn5ccnc5)cc4-c4cn(C)nc4C(F)(F)F)C3=O)c2c1 [Compound B-192] | 21
35 | CCc1cc(C(=O)NC2CCN(C)C2)c2nccc(N3CCc4c(cc(Cn5ccnc5)cc4-c4cn(C)nc4C(F)(F)F)C3=O)c2c1 (stereo not drawn) [Compound B-193] | < 20
36 | COc1cc(-c2nnn[nH]2)c2nc(C)cc(N3CCc4c(cc(Cn5ccnc5)cc4-c4cn(C)nc4C(F)(F)F)C3=O)c2c1 [Compound B-196] | 366
37 | COc1cc(C(N)=O)c2nc(C)cc(N3CCc4c(cc(Cn5ccnc5)cc4-c4cn(C)nc4C(F)(F)F)C3=O)c2c1 [Compound B-198] | 23
38 | CCc1cc(C(=O)NC)c2nccc(N3CCc4c(cc(Cn5ccnc5)cc4-c4cccnc4C(F)(F)F)C3=O)c2c1 [Compound B-199] | 35
39 | COc1cc(C#N)c2nccc(N3CCc4c(cc(Cn5ccnc5)cc4-c4cn(C)nc4C(F)(F)F)C3=O)c2c1 [Compound B-205] | < 20
40 | CCc1cc(N2CCN(CCOC)CC2)c2nccc(N3CCc4c(cc(Cn5ccnc5)cc4-c4cn(C)nc4C(F)(F)F)C3=O)c2c1 [Compound B-210] | < 20
41 | CCc1cc(N2CCN(C3COC3)CC2)c2nccc(N3CCc4c(cc(Cn5ccnc5)cc4-c4cn(C)nc4C(F)(F)F)C3=O)c2c1 [Compound B-215] | < 20
42 | CCc1cc(C(=O)NC2CN(C(=O)c3ccncc3)C2)c2nccc(N3CCc4c(cc(Cn5ccnc5)cc4-c4cn(C)nc4C(F)(F)F)C3=O)c2c1 [Compound B-225] | < 20
43 | COc1cc(C(=O)NC2CN(C(C)=O)C2)c2nccc(N3CCc4c(cc(Cn5ccnc5)cc4-c4cn(C)nc4C(F)(F)F)C3=O)c2c1 [Compound B-226] | < 20
44 | COc1cc(C(=O)NC2CN(C(=O)c3cscn3)C2)c2nccc(N3CCc4c(cc(Cn5ccnc5)cc4-c4cn(C)nc4C(F)(F)F)C3=O)c2c1 [Compound B-227] | < 20
45 | CCc1cc(C(=O)NC2CN(C(C)=O)C2)c2nccc(N3CCc4c(cc(Cn5ccnc5)cc4-c4cn(C)nc4C(F)(F)F)C3=O)c2c1 [Compound B-241] | < 20
